Assay: gradient 5% acetonitrile 3 min, to 50% in 2 min, to 85% in 15 min, held 3 min, 100 µL/min
Conditions: column: Zorbax Extend-C18 2.1 x 50 mm; eluents: water / acetonitrile, 0.1% formic acid
Outline: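 Retention time was recorded from adduct peaks, which were picked computationally and each inspected manually. Pure standards ran in mixtures of ~100 molecules on HPLC coupled to a quadrupole time-of-flight mass spectrometer, in positive and negative ionization mode, through a Zorbax Extend-C18 column (2.1 × 50 mm, 1.8 μm) at 100 μL/min. Eluents were water and acetonitrile, each with 0.1% formic acid.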

SMILES	RP-LC retention time [s]
O=S(=O)(NCc1ccc(F)cc1)c1ccccc1-c1nc(-c2cccc(F)c2)no1	1150
CCN(Cc1ccc(OC)cc1)Cc1cc(=O)n2cc(C)ccc2n1	572
CC(C)S(=O)(=O)c1cc2c(cc1NC(=O)c1cccc(F)c1)n(C)c(=O)n2C	846
CCCNC(=O)N1CCN(c2nc(CC(C)C)c3c(c2C#N)CC(C)(C)OC3)CC1	1090
Cc1ccc2sc(N(CCCn3ccnc3)C(=O)c3ccc4c(c3)OCCO4)nc2c1C	636
CN(C)C(CNC(=O)c1cc(-c2ccc3c(c2)OCCO3)on1)c1ccc(Cl)cc1 (centres undefined)	705
CCC1Oc2ccc(S(=O)(=O)N3CCC(C(=O)N(CC)c4cccc(C)c4)CC3)cc2NC1=O (centres undefined)	974
CCOC(=O)c1noc2ncnc(Nc3ccc(OC)cc3)c12	717
CC(C)Oc1ccc(-c2noc(Cn3ccn(-c4ccc(Cl)cc4)c(=O)c3=O)n2)cc1	973
CC(C)CNS(=O)(=O)c1cc(-c2nc(CC(C)C)cs2)cs1	1170
CCOc1ccc(-c2nc(C3CC(=O)N(c4ccc(F)c(Cl)c4)C3)no2)cc1OCC (centres undefined)	1150
CCN(CC)Cc1ccc2cc(COC(=O)Nc3ccc(C(=O)NO)cc3)ccc2c1	654
COc1ccc(-c2noc(Cn3ccn4nc(-c5ccccc5)cc4c3=O)n2)cc1	1030
CCOC(=O)c1cc([N+](=O)[O-])sc1NC(=O)CCCS(=O)(=O)c1ccc(F)cc1	965
O=S(=O)(NCc1ccc(F)cc1Cl)c1c[nH]c2ncccc12	748
NC[C@@H]1O[C@H](C23CC4CC(CC(C4)C2)C3)Cc2c1ccc(O)c2O	787
COc1ccccc1NC(=O)Cn1nc2cc(C)nc(-c3ccc(F)cc3)n2c1=O	851
O=C(Nc1ccc(S(=O)(=O)N2CC3CC(C2)c2cccc(=O)n2C3)cc1)C1CC1 (centres undefined)	631
CCC(=O)NCc1ccc(-c2nc(C(C)C)cs2)cc1	873
Cc1ccc(-c2ncc(C#N)c(=O)n2CC(=O)NCc2ccccc2Br)cc1	1010
COC(=O)c1c(C)c(C(=O)C(C)N(CC(C)C)C(=O)c2ccc(F)cc2)c(C)n1C (centres undefined)	1020

SMILES	RP-LC retention time [s]
CCC(=O)N(C1CCOCC1)C1CCN(S(=O)(=O)c2ccc(OC)cc2)CC1	800
NCC(O)C1CCCCCCC1 (centres undefined)	633
Cc1cccc(-c2ncccc2CNS(=O)(=O)c2cccc(C#N)c2)c1	700
CCn1c(C)c(CCC(=O)NCCOC)c(=O)n2nc(-c3ccccc3)nc12	665
CN(C)S(=O)(=O)c1ccc(COc2ccc(F)cc2)o1	875
CC(Oc1ccccc1F)C(=O)NCCOc1ccc(-c2ccccn2)nn1 (centres undefined)	612
CCCn1c(=O)oc2cc(NC(=O)NCC(=O)OCC)ccc21	703
CON=C(C(=O)NC1C(=O)N2C(C(=O)O)=C(CSc3nc(C)c(CC(=O)O)s3)CSC12)c1csc(N)n1 (centres undefined)	629
Cc1ccc(-c2nc3ccc(Br)cn3c2Nc2ccccc2C)cc1	892
CCC(=O)N1CCc2ccccc2C1C(=O)NCc1ccc(Br)cc1 (centres undefined)	887
COCCNC(=O)CCCn1c(=O)c2cccn2c2ccccc21	680
CC(C)[C@@H](CN1CC[C@@](C)(c2cccc(O)c2)[C@@H](C)C1)NC(=O)[C@H]1Cc2ccc(O)cc2CN1	555
COCC(=O)N(C1CCOCC1)C1CCN(C(=O)Cc2ccc(Cl)cc2)CC1	618
O=C(NCCn1c(=O)n(Cc2ccc(F)cc2)c2cccnc21)C1CC1	711
O=C(CNC(=O)c1ccccc1)NCCSc1ccc(C(=O)Nc2ccccc2)cn1	728
Cc1ccc(-c2noc(CN3N=NC4C(=O)N(c5cccc(F)c5)C(=O)C43)n2)cc1C (centres undefined)	897
COc1cccc(-c2noc(Cc3nnc(-c4ccccc4)o3)n2)c1OC	894
CCCCOc1ccc(C(=O)Nc2ccc(-c3cn4ccc(C)nc4n3)cc2)cc1	781
COC(=O)c1ccc(-c2nc3cnccn3c2Nc2cccc(OC)c2)cc1	846
CCOc1ccc(-c2noc(Cc3nnc(-c4cc(F)cc(F)c4)o3)n2)cc1	1100
Cc1ccc(S(=O)(=O)N2CCSCCSCCSCCSCC2)cc1	1160

Results, then the compound that gave them:

RP-LC retention time [s]	SMILES
609	O=C(CCNS(=O)(=O)c1ccc(Cl)cc1)N1CCN(c2ccccn2)CC1
869	CC(=O)N1CCc2cc(C(=O)N3CCCC3)ccc21
600	CCn1c(=O)sc2cc(S(=O)(=O)N3CCC(C(=O)N4CCN(C)CC4)CC3)ccc21
604	NC(=O)c1cc(C(N)=O)nc(Cl)n1
778	CCC(=O)N1CCc2c(C(=O)N3CCN(c4ccc(OC)cc4)CC3)cccc21
904	Cc1ccc(NC(=O)N2CCC(n3cnc4cc(Cl)ccc4c3=O)CC2)cc1F
613	Cc1cccc(C(=O)Nc2c(C(=O)N3CCN(c4ccccn4)CC3)[nH]c3ccccc23)c1
892	Cc1nc(OCC(=O)Nc2ccc(Cl)c(C(F)(F)F)c2)c2ccccc2n1
754	CCc1cccc(NC(=O)Cn2c(=O)nc(N3CCCCC3)c3ccccc32)c1
807	CCCn1c(=O)sc2cc(S(=O)(=O)N3CCC(C(=O)N4CCCC4)CC3)ccc21
1110	COc1ccccc1C(=O)Nc1nc(-c2ccccc2)cs1
1010	CCc1noc(-c2ccc(-n3ncc(C(=O)N4CCCCCC4)c3C)nc2)n1
836	O=C(Nc1ccc(N2CCN(c3ccccc3)C2=O)nc1)c1cccs1
594	Cc1nnc(NC(=O)c2ccc(N3CCCC3)nn2)s1
520	CCn1c(=O)c(C(=O)N2CCN(C3CCCCC3)CC2)nc2cccnc21
1210	CC1(C(=O)NCc2ccc(F)cc2)CCN(S(=O)(=O)c2ccc(C3CCCCC3)cc2)CC1
591	Cn1nc(CO)c2c1CCN(C(=O)c1ccc3[nH]ccc3c1)C2
1100	COc1ccccc1-c1nnc(-c2ccc(C)c(S(=O)(=O)N3CCCCCC3)c2)o1
694	COc1cc(NC(=O)C2CC(=O)N(c3ccc4c(c3)CCN4C(C)=O)C2)cc(OC)c1 (centres undefined)
658	COCCNC(=O)Cn1ccc2c(SCc3ccc(C)cc3)nccc21
585	COCCCNC(=O)C1CCN(c2nc3ccc(-c4cccnc4)nc3s2)CC1
886	COc1cc(NC(=O)c2c(S(=O)(=O)Nc3ccc(Cl)cc3)n[nH]c2C)cc(OC)c1
910	CC(NC(=O)c1ccc(-c2cccs2)nc1)c1ccccc1 (centres undefined)
911	O=C(C1CCN(S(=O)(=O)c2cc(-c3noc(C4CCC4)n3)cs2)CC1)N1CCCC1

RP-LC retention time [s]	SMILES
639	Cc1noc(C2CCCCN2Cc2nc(-c3ccccn3)no2)n1 (centres undefined)
674	CCc1nnc([C@@H]2CC(F)(F)CN2C(=O)Cc2cc(C)no2)o1
1130	COc1ccc(NC(=O)c2cc(C(C)C)n3nccc3n2)cc1Cl
806	O=C(NCCc1ccccc1)c1ccc2c(c1)NC(=O)C1CCCCN21 (centres undefined)
777	CCOc1cccc(CNC(=O)C2CCc3nc(N4CCCCC4)ncc3C2)c1 (centres undefined)
922	CS(=O)(=O)N1CCC(C(=O)NC2CCCCC2)Oc2ccc(Cl)cc21 (centres undefined)
1220	Cc1sc(-c2cc(C(F)(F)F)on2)cc1S(=O)(=O)NCCc1ccc(Cl)cc1
584	Cc1nc2c(c(Nc3cc(C(=O)O)ccc3C)n1)CCC2
676	Cc1nc2cc(NC(=O)c3ccc(N4CCOCC4)nn3)ccc2s1
679	CCOC(=O)N1CCN(c2ncc(C(=O)Nc3ccc(OC)cc3)c(N)n2)CC1
880	COc1ccc(CNC(=O)C2(C)CCN(C(=O)Nc3ccc(C)c(F)c3)CC2)cc1
1170	COc1nc2ccccc2nc1N1CCCC(C(=O)Nc2cccc(F)c2)C1 (centres undefined)
676	COC1CCOC2(CCN(C(=O)c3ccsc3)CC2)C1 (centres undefined)
715	CCCNC(=O)C1CCN(c2ccc(SCC(=O)Nc3ccc(C)c(Cl)c3)nn2)CC1
832	COc1ccccc1N1CCN(S(=O)(=O)CCNC(=O)CCCc2ccccc2)CC1
776	CCOc1ccc(NC(=O)N2C[C@@H](F)C[C@H]2C(=O)N2CCc3ccccc3C2)cc1
892	Cn1nc(-c2nnc(-c3ccc(F)cc3)o2)c2c1CCN(C(=O)Nc1ccccc1Cl)C2
587	CCCc1cc(N2CCN(C(=O)C3CCN(C(C)=O)CC3)CC2)nc2nnc(CC)n12
891	Cc1nn(CC(=O)NCc2cc(F)cc(F)c2)c(=O)c2nc(-c3ccccc3)sc12
573	CCCCN1CCN(C(=O)c2ccc(-c3ccnc(N4CCCC4)n3)cc2)CC1
588	CNC(=O)c1cc(=O)[nH]c2c(C)cccc12
606	CC1CCN(CCNC(=O)c2nnc(-c3ccc(S(=O)(=O)N(C)C)cc3)o2)CC1
708	CCn1cc(CCNC(=O)c2c(F)cccc2Cl)c2cccnc21

From the METLIN SMRT retention time set (Domingo-Almenara et al. 2019)
